Reference: patent US20090137686A1, “Treatment of Ophthalmic Diseases” (priority 2005, published 2009)

System: IFNγ secretion in whole blood stimulated with heat-killed Staphylococcus epidermidis
Experiment: in vitro whole blood assay stimulated with Staphylococcus epidermidis, measuring IFNγ
Assay type: cell-based
Conditions: 24 hours; for inhibitory activity of IFNg secretion resulting from Staphylococcus epidermidis stimulation: IFNγ by ELISA; for IFNγ concentration: at 62.5 nMol test compound, cut from 4500 pg/ml; for inhibition of IFNγ: lowest concentration of 62.5 nMol
From the text: The following experimental work illustrates the invention. This involves an in vitro whole blood assay stimulated with Staphylococcus epidermidis, measuring IFNγ. IFNγ as a key mediator in pathological processes in ocular inflammatory disease, namely age-related macular degeneration (Penfold et al, 2002) and proliferative vitreoretinopathy (El-Ghrably et al, 2001). 1:100 diluted heat-killed Staphylococcus epidermidis in conjunction with various concentrations of test compound (in a stock DMSO solution) was added to a 100-fold volume of whole blood. After 24 hours, whole blood was diluted 1:4 and IFNγ was measured by enzyme-linked immuno-absorptive assay.

SMILES: CC(C(O)c1ccc(O)cc1)N1CCC(Cc2ccccc2)CC1 (racemic) [ifenprodil erythro racemate, ifenprodil]
- inhibitory activity of IFNg secretion resulting from Staphylococcus epidermidis stimulation: strong inhibitory activity
- IFNγ concentration: 1500 pg/mL
- inhibition of IFNγ: 66%

SMILES: CC(NCCc1ccc(O)cc1)C(O)c1ccc(O)cc1 (racemic) [ritodrine racemate, ritodrine]
- inhibitory activity of IFNg secretion resulting from Staphylococcus epidermidis stimulation: strong inhibitory activity
- IFNγ concentration: 1500 pg/mL
- inhibition of IFNγ: 66%
